Source: patent publication US20040198609A1, “4-alkyl-substituted thienyloxy-pyridines” (priority 2001, published 2004)

Legend:
Test in all cases: greenhouse post-emergence herbicidal test
Type in all cases: in vivo
Conditions in all cases: application rates of 0.25 or 0.125 kg/ha
[1] = test system: Chenopodium album
Source text: (§1) The seeds of the test plants were sown separately for each species. For the post-emergence treatment, the test plants were first grown to a height of from 3 to 15 cm, depending on the plant habit, and only then treated with the active compounds which had been suspended or emulsified in water. The test plants were for this purpose either sown directly and grown in the same containers, or they were first grown separately as seedlings and transplanted into the test containers a few days prior to treatment. The application rate for the post-emergence treatment was 0.25 or 0.125 kg of a.s. (active substance)/ha. Depending on the species, the plants were kept at 10-25° C. or 20-35° C. The test period extended over 2 to 4 weeks. During this time, the plants were tended, and their response to the individual treatments was evaluated. Evaluation was carried out using a scale from 0 to 100. 100 means no emergence of the plants, or complete destruction of at least the above-ground parts, and 0 means no damage, or normal course of growth. The plants used in the greenhouse experiments were of the following species: [table]

[2] = test system: Galium aparine
Source text: as §1

[3] = test system: Pharbitis purpurea
Source text: as §1

[4] = test system: Amaranthus retroflexus
Source text: as §1

Measured: post-emergence action

Cc1c(F)c(Oc2csc(C(F)(F)F)c2)nc(-n2ccc(C(F)(F)F)n2)c1F [compound 3.1, 3,5-Difluoro-4-methyl-2-(3-trifluoromethyl-1H-pyrazol-1-yl)-6-(5-trifluoromethyl-3-thienyloxy)pyridine]
very good: all assays above
